# Literature values as cited in patent US6891077B2, “Fibrinogen bandages and arterial bleeding models and methods of making and using thereof” (priority 2001, dated 2005).
# Test system: coagulation and clot formation
# Conditions: incorporated in or on fibrinogen dressings or bandages
smiles,measurement,value
NCCCCCC(=O)O [ε-amino caproic acid],Effect on coagulation and clot formation as compared to fibrinogen bandages alone,decreased coagulation and clot formation
